The record followed here is ChEMBL document CHEMBL1143783, “In vitro biotransformations of the prostaglandin D2 (DP) antagonist MK-0524 and synthesis of metabolites” (Bioorg Med Chem Lett, 2007).

The structures appear in SMILES notation.

The subject of the data set is Plasma. In words: Stability in rat plasma. It is filed as ADME, cell-free.

Take `CS(=O)(=O)c1cc(F)cc2c3c(n(Cc4ccc(Cl)cc4)c12)[C@@H](CC(=O)O)C[C@H]3O`: the Stability is under 5%.

Regarding `CS(=O)(=O)c1cc(F)cc2c3c(n(Cc4ccc(Cl)cc4)c12)[C@@H](CC(=O)O)C[C@@H]3O`, the Stability is under 5%.
